In the supplement of paper PMC10307832:

How the values were obtained:
Assay in all cases: relative viability (nuclei count vs DMSO), 5 days (fraction); higher = more cells survive
[1] = system: NCI-H2126
Summary of the method: (§1)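 One day after seeding in 1536-well plates, lung cancer cell lines were dosed by pin tool. Dosing was either single-drug or a fixed anchor-drug dose plus five library-drug doses (not always all listed) in √10 steps. After 5 days, nuclei were stained in one fix-and-stain step and counted on 4× images, and relative viability is the nuclei count of treated wells over that of vehicle wells, given as the median of duplicate plates.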

[2] = system: HARA
Summary of the method: as §1

[3] = system: NCI-H2023
Summary of the method: as §1

[4] = system: NCI-H1915
Summary of the method: as §1

[5] = system: PC-3 [JPC-3]
Summary of the method: as §1

[6] = system: NCI-H441
Summary of the method: as §1

[7] = system: LU99A
Summary of the method: as §1

[8] = system: NCI-H460
Summary of the method: as §1

[9] = system: NCI-H650
Summary of the method: as §1

[10] = system: NCI-H23
Summary of the method: as §1

[11] = system: A-427
Summary of the method: as §1

[12] = system: LOU-NH91
Summary of the method: as §1

[13] = system: NCI-H1755
Summary of the method: as §1

[14] = system: NCI-H322M
Summary of the method: as §1

[15] = system: BEN
Summary of the method: as §1

[16] = system: NCI-H1666
Summary of the method: as §1

[17] = system: SK-LU-1
Summary of the method: as §1

[18] = system: LCLC-97TM1
Summary of the method: as §1

[19] = system: LXF-289
Summary of the method: as §1

[20] = system: NCI-H1793
Summary of the method: as §1

[21] = system: NCI-H1395
Summary of the method: as §1

[22] = system: NCI-H1944
Summary of the method: as §1

SMILES: Cc1cnc(-c2cnc(NCCNc3ccc(C#N)cn3)nc2-c2ccc(Cl)cc2Cl)[nH]1 + CC(C)C[C@H](NC(=O)[C@H](Cc1ccccc1)NC(=O)c1cnccn1)B(O)O [Bortezomib] (partner 0.002 µM)
- relative viability ([1]; first compound 0.08 µM): 1.09
- relative viability ([1]; first compound 0.253 µM): 1.09
- relative viability ([1]; first compound 0.8 µM): 1.12
- relative viability ([1]; first compound 2.53 µM): 1.15
- relative viability ([2]; first compound 0.08 µM): 1.05
- relative viability ([2]; first compound 0.253 µM): 1.09
- relative viability ([2]; first compound 0.8 µM): 1.08
- relative viability ([2]; first compound 2.53 µM): 1.08
- relative viability ([3]; first compound 0.08 µM): 1.44
- relative viability ([3]; first compound 0.253 µM): 0.651
- relative viability ([3]; first compound 0.8 µM): 1.01
- relative viability ([3]; first compound 2.53 µM): 0.978
- relative viability ([4]; first compound 0.08 µM): 0.977
- relative viability ([4]; first compound 0.8 µM): 1.02
- relative viability ([4]; first compound 2.53 µM): 0.975
- relative viability ([5]; first compound 0.08 µM): 0.791
- relative viability ([5]; first compound 0.253 µM): 0.818
- relative viability ([5]; first compound 0.8 µM): 0.811
- relative viability ([5]; first compound 2.53 µM): 0.869
- relative viability ([6]; first compound 0.08 µM): 0.688
- relative viability ([6]; first compound 0.253 µM): 0.352
- relative viability ([6]; first compound 0.8 µM): 0.707
- relative viability ([6]; first compound 2.53 µM): 0.617
- relative viability ([7]; first compound 0.08 µM): 1.27
- relative viability ([7]; first compound 0.253 µM): 1.12
- relative viability ([7]; first compound 0.8 µM): 1.29
- relative viability ([7]; first compound 2.53 µM): 1.18
- relative viability ([8]; first compound 0.08 µM): 1.18
- relative viability ([8]; first compound 0.253 µM): 1
- relative viability ([8]; first compound 0.8 µM): 1.07
- relative viability ([8]; first compound 2.53 µM): 0.968
- relative viability ([9]; first compound 0.08 µM): 0.707
- relative viability ([9]; first compound 0.253 µM): 0.819
- relative viability ([9]; first compound 0.8 µM): 0.838
- relative viability ([9]; first compound 2.53 µM): 0.744
- relative viability ([10]; first compound 0.08 µM): 1.13
- relative viability ([10]; first compound 0.253 µM): 0.846
- relative viability ([10]; first compound 0.8 µM): 1.16
- relative viability ([10]; first compound 2.53 µM): 1.13
- relative viability ([11]; first compound 0.08 µM): 0.972
- relative viability ([11]; first compound 0.253 µM): 1.03
- relative viability ([11]; first compound 0.8 µM): 0.993
- relative viability ([11]; first compound 2.53 µM): 0.975
- relative viability ([12]; first compound 0.08 µM): 0.488
- relative viability ([12]; first compound 0.253 µM): 0.519
- relative viability ([12]; first compound 0.8 µM): 0.491
- relative viability ([12]; first compound 2.53 µM): 0.491
- relative viability ([13]; first compound 0.08 µM): 1.02
- relative viability ([13]; first compound 0.253 µM): 0.889
- relative viability ([13]; first compound 0.8 µM): 0.828
- relative viability ([13]; first compound 2.53 µM): 0.994
- relative viability ([14]; first compound 0.08 µM): 1.13
- relative viability ([14]; first compound 0.253 µM): 1.1
- relative viability ([14]; first compound 0.8 µM): 1.22
- relative viability ([14]; first compound 2.53 µM): 1.31
- relative viability ([15]; first compound 0.08 µM): 0.623
- relative viability ([15]; first compound 0.253 µM): 0.786
- relative viability ([15]; first compound 0.8 µM): 0.725
- relative viability ([15]; first compound 2.53 µM): 0.797
- relative viability ([16]; first compound 0.08 µM): 0.824
- relative viability ([16]; first compound 0.253 µM): 0.857
- relative viability ([16]; first compound 0.8 µM): 0.764
- relative viability ([16]; first compound 2.53 µM): 0.886
- relative viability ([17]; first compound 0.08 µM): 1.26
- relative viability ([17]; first compound 0.253 µM): 0.993
- relative viability ([17]; first compound 0.8 µM): 1.34
- relative viability ([17]; first compound 2.53 µM): 1.13
- relative viability ([18]; first compound 0.08 µM): 0.844
- relative viability ([18]; first compound 0.253 µM): 0.647
- relative viability ([18]; first compound 0.8 µM): 0.709
- relative viability ([18]; first compound 2.53 µM): 0.362
- relative viability ([19]; first compound 0.08 µM): 1.04
- relative viability ([19]; first compound 0.253 µM): 0.946
- relative viability ([19]; first compound 0.8 µM): 1.09
- relative viability ([19]; first compound 2.53 µM): 1.11

SMILES: Cc1cnc(-c2cnc(NCCNc3ccc(C#N)cn3)nc2-c2ccc(Cl)cc2Cl)[nH]1 + C[C@]1(O)C[C@@H](c2nc(-c3ccc4ccc(-c5ccccc5)nc4c3)c3c(N)nccn32)C1 [Linsitinib] (partner 1 µM)
- relative viability ([20]; first compound 0.08 µM): 1.16
- relative viability ([20]; first compound 0.253 µM): 0.822
- relative viability ([20]; first compound 0.8 µM): 0.809
- relative viability ([20]; first compound 2.53 µM): 0.916
- relative viability ([1]; first compound 0.08 µM): 0.739
- relative viability ([1]; first compound 0.253 µM): 0.726
- relative viability ([1]; first compound 0.8 µM): 0.753
- relative viability ([1]; first compound 2.53 µM): 0.704
- relative viability ([2]; first compound 0.08 µM): 1.1
- relative viability ([2]; first compound 0.253 µM): 0.847
- relative viability ([2]; first compound 0.8 µM): 0.921
- relative viability ([2]; first compound 2.53 µM): 0.933
- relative viability ([3]; first compound 0.08 µM): 0.779
- relative viability ([3]; first compound 0.253 µM): 0.649
- relative viability ([3]; first compound 0.8 µM): 0.794
- relative viability ([3]; first compound 2.53 µM): 1.12
- relative viability ([4]; first compound 0.08 µM): 1.08
- relative viability ([4]; first compound 0.8 µM): 1.11
- relative viability ([4]; first compound 2.53 µM): 1.08
- relative viability ([5]; first compound 0.08 µM): 0.93
- relative viability ([5]; first compound 0.253 µM): 0.858
- relative viability ([5]; first compound 0.8 µM): 0.943
- relative viability ([5]; first compound 2.53 µM): 0.964
- relative viability ([6]; first compound 0.08 µM): 0.662
- relative viability ([6]; first compound 0.253 µM): 0.445
- relative viability ([6]; first compound 0.8 µM): 0.606
- relative viability ([6]; first compound 2.53 µM): 0.519
- relative viability ([7]; first compound 0.08 µM): 0.592
- relative viability ([7]; first compound 0.253 µM): 0.538
- relative viability ([7]; first compound 0.8 µM): 0.5
- relative viability ([7]; first compound 2.53 µM): 0.569
- relative viability ([8]; first compound 0.08 µM): 0.918
- relative viability ([8]; first compound 0.253 µM): 0.623
- relative viability ([8]; first compound 0.8 µM): 0.974
- relative viability ([8]; first compound 2.53 µM): 0.782
- relative viability ([9]; first compound 0.08 µM): 1.02
- relative viability ([9]; first compound 0.253 µM): 0.769
- relative viability ([9]; first compound 0.8 µM): 0.93
- relative viability ([9]; first compound 2.53 µM): 0.712
- relative viability ([21]; first compound 0.08 µM): 1.17
- relative viability ([21]; first compound 0.253 µM): 0.972
- relative viability ([21]; first compound 0.8 µM): 1.04
- relative viability ([21]; first compound 2.53 µM): 1
- relative viability ([10]; first compound 0.08 µM): 0.674
- relative viability ([10]; first compound 0.253 µM): 0.555
- relative viability ([10]; first compound 0.8 µM): 0.536
- relative viability ([10]; first compound 2.53 µM): 0.691
- relative viability ([11]; first compound 0.08 µM): 1.09
- relative viability ([11]; first compound 0.253 µM): 1.12
- relative viability ([11]; first compound 0.8 µM): 1.11
- relative viability ([11]; first compound 2.53 µM): 1.15
- relative viability ([12]; first compound 0.08 µM): 1.07
- relative viability ([12]; first compound 0.253 µM): 0.951
- relative viability ([12]; first compound 0.8 µM): 0.969
- relative viability ([12]; first compound 2.53 µM): 0.89
- relative viability ([13]; first compound 0.08 µM): 1.03
- relative viability ([13]; first compound 0.253 µM): 0.856
- relative viability ([13]; first compound 0.8 µM): 0.958
- relative viability ([13]; first compound 2.53 µM): 0.991
- relative viability ([14]; first compound 0.08 µM): 0.99
- relative viability ([14]; first compound 0.253 µM): 0.853
- relative viability ([14]; first compound 0.8 µM): 0.874
- relative viability ([14]; first compound 2.53 µM): 0.947
- relative viability ([15]; first compound 0.08 µM): 0.951
- relative viability ([15]; first compound 0.253 µM): 0.843
- relative viability ([15]; first compound 0.8 µM): 0.994
- relative viability ([15]; first compound 2.53 µM): 0.928
- relative viability ([22]; first compound 0.08 µM): 1.36
- relative viability ([22]; first compound 0.8 µM): 1.23
- relative viability ([22]; first compound 2.53 µM): 1.21
- relative viability ([16]; first compound 0.08 µM): 0.926
- relative viability ([16]; first compound 0.253 µM): 0.868
- relative viability ([16]; first compound 0.8 µM): 0.921
- relative viability ([16]; first compound 2.53 µM): 0.976
- relative viability ([17]; first compound 0.08 µM): 1.13
- relative viability ([17]; first compound 0.253 µM): 1.12
- relative viability ([17]; first compound 0.8 µM): 1.32
- relative viability ([17]; first compound 2.53 µM): 1.09
- relative viability ([18]; first compound 0.08 µM): 0.206
- relative viability ([18]; first compound 0.253 µM): 0.177
- relative viability ([18]; first compound 0.8 µM): 0.172
- relative viability ([18]; first compound 2.53 µM): 0.208
- relative viability ([19]; first compound 0.08 µM): 0.965
- relative viability ([19]; first compound 0.253 µM): 0.897
- relative viability ([19]; first compound 0.8 µM): 1.01
- relative viability ([19]; first compound 2.53 µM): 0.984
